Laboratory results: US8211929B2, “Pyrimidine derivatives as kinase modulators and method of use” (Exelixis, Inc., priority 2004, dated 2012)
Like-named read-outs stand apart in the source and are kept apart here.

Tests used:
IGF 3P = biological target: T1, IGF 3P (Homo sapiens, UniProt P08069); test: IGF1R kinase assay (LCCA), IGF 3P; type: biochemical
T1 construct: human IGF1R kinase domain residues M954-C1367; made in house; host or cells: baculovirus expression (insect cells)
Procedure, shortened: (§1)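 Baculovirus-expressed human IGF1R kinase domain (M954-C1367), 4 nM, with 3 μM ATP and 4 μM poly EY in Tris-HCl pH 7.5 buffer containing MgCl2 and MnCl2, 2 h at ambient temperature. Remaining ATP read by luciferase chemiluminescence; IC50 from 10-point dose-response fitted to a four-parameter equation.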

[1] = biological target: T2, (Homo sapiens, UniProt P08069); test: IGF1R kinase assay (LCCA), IGF 0P; type: biochemical
T2 construct: human IGF1R kinase domain residues M954-C1367; made in house; host or cells: baculovirus expression (insect cells)
T2 sequence (P08069 954-1367): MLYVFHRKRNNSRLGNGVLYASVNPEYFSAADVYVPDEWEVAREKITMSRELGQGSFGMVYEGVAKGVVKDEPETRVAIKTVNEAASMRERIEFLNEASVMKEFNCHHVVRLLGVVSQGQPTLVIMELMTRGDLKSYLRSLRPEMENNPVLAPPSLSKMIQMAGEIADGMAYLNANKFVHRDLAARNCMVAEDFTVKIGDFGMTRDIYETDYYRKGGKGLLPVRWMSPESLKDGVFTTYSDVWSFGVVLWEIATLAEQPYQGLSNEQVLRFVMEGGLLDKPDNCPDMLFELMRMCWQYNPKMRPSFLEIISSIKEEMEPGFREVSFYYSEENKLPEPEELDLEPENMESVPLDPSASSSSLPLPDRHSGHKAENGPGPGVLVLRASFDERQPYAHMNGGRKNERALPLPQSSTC
Procedure, shortened: as §1

T1 sequence (P08069 954-1367): as above

Compound	IC50 (IGF 3P; IGF1R kinase LCCA assay)	IC50 ([1]; IGF1R kinase LCCA assay)	IC50 (IGF 3P)	IC50 [1]
CN(c1ccccc1)c1ncc(Br)c(Nc2cc(C3CC3)[nH]n2)n1 [Example 223]	500 to 5000 nM	50 to 500 nM	–	–
c1ccc(-c2cc(CNc3nc4c(c(Nc5cc(C6CC6)[nH]n5)n3)CCNC4)on2)cc1 [Example 283]	> 5000 nM	> 5000 nM	–	–
N#Cc1cccc(Nc2ncc(Br)c(Nc3cc(C4CC4)n[nH]3)n2)c1 [Example 196]	500 to 5000 nM	500 to 5000 nM	–	–
CC(C)c1cc(Nc2nc(NCc3cc(-c4ccccc4)no3)ncc2Br)[nH]n1 [Example 10]	50 to 500 nM	50 to 500 nM	–	–
CN1CCN(c2cc(Nc3cc(C4CC4)[nH]n3)nc(NCc3cc(-c4ccncn4)no3)n2)CC1 [Example 628, N^4-(5-cyclopropyl-1H-pyrazol-3-yl)-6-(4-methylpiperazin-1-yl)-N^2-[(3-pyrimidin-4-ylisoxazol-5-yl)methyl]pyrimidine-2,4-diamine]	–	–	< 50 nM	50 to 500 nM
Cc1cc(Nc2cc(C3CC3)[nH]n2)nc(NCc2nc(-c3ccccc3)cs2)n1 [Example 252]	500 to 5000 nM	500 to 5000 nM	–	–
CCN(CC)CCCNc1cc(Nc2cc(C3CC3)[nH]n2)nc(NCc2cc(-c3ccccc3)no2)n1 [Example 42]	< 50 nM	50 to 500 nM	–	–
FC(F)(F)Oc1cccc(Nc2ncc(Br)c(Nc3cc(C4CC4)n[nH]3)n2)c1 [Example 264]	> 5000 nM	> 5000 nM	–	–
Brc1cnc(NC2CCc3ccccc32)nc1Nc1cc(C2CC2)[nH]n1 (stereo not shown) [Example 25]	500 to 5000 nM	50 to 500 nM	–	–
Brc1ccc(Br)c(Nc2ncc(Br)c(Nc3cc(C4CC4)n[nH]3)n2)c1 [Example 172]	500 to 5000 nM	50 to 500 nM	–	–
Brc1ccc(Nc2ncc(Br)c(Nc3cc(C4CC4)n[nH]3)n2)c(Br)c1 [Example 163]	500 to 5000 nM	500 to 5000 nM	–	–
Cc1cc(CNc2nc(Nc3cc(C4CC4)[nH]n3)cc(N3CC4CC3CN4C)n2)on1 (stereo not shown) [Example 631, N^4-(5-cyclopropyl-1H-pyrazol-3-yl)-6-(5-methyl-2,5-diazabicyclo[2.2.1]hept-2-yl)-N^2-[(3-methylisoxazol-5-yl)methyl]pyrimidine-2,4-diamine]	–	–	< 50 nM	50 to 500 nM
Cc1cc(Nc2cc(C3CC3)n[nH]2)nc(Nc2ccc(N3CCOCC3)cc2)n1 [Example 268]	> 5000 nM	> 5000 nM	–	–
CN1CCC(Oc2cc(Nc3cc(C4CC4)[nH]n3)nc(NCc3cc(-c4ccccc4)no3)n2)C1 (stereo not shown) [Example 515]	< 50 nM	50 to 500 nM	–	–
Cc1cc(Nc2ccc3ccccc3c2)nc(NCc2cc(-c3ccccc3)no2)n1 [Example 299]	> 5000 nM	> 5000 nM	–	–
Clc1ccccc1Nc1ncc(Br)c(Nc2cc(C3CC3)on2)n1 [Example 286]	> 5000 nM	> 5000 nM	–	–
O=[N+]([O-])c1cnc(Nc2ccc(Cl)cc2Cl)nc1Nc1cc(C2CC2)n[nH]1 [Example 331]	> 5000 nM	> 5000 nM	–	–
Cc1cc(Nc2cc(C3CC3)n[nH]2)nc(Nc2cc(Br)cc(C(F)(F)F)c2)n1 [Example 301]	> 5000 nM	> 5000 nM	–	–
Cc1cc(Nc2ccc3ccccc3c2)nc(Nc2ccc(N3CCOCC3)cc2)n1 [Example 297]	> 5000 nM	> 5000 nM	–	–
CCN(CC)CCCNC(=O)c1ccc(Nc2nccc(Nc3cc(C4CC4)n[nH]3)n2)cc1 [Example 195]	500 to 5000 nM	500 to 5000 nM	–	–
Brc1cnc(NCc2cc(-c3ccccc3)cs2)nc1Nc1cc(C2CC2)n[nH]1 [Example 271]	> 5000 nM	> 5000 nM	–	–
Brc1cnc(Nc2cccc(Oc3ccccc3)c2)nc1Nc1cc(C2CC2)n[nH]1 [Example 330]	> 5000 nM	> 5000 nM	–	–
Brc1cnc(NCc2cnn(-c3ccccc3)n2)nc1Nc1cc(C2CC2)n[nH]1 [Example 266]	> 5000 nM	500 to 5000 nM	–	–
CN1CCN(c2cc(Nc3cc(C4CC4)[nH]n3)nc(NCc3cc(-c4nccs4)no3)n2)CC1 [Example 648, N^4-(5-cyclopropyl-1H-pyrazol-3-yl)-6-(4-methylpiperazin-1-yl)-N^2-{[3-(1,3-thiazol-2-yl)isoxazol-5-yl]methyl}pyrimidine-2,4-diamine]	–	–	< 50 nM	50 to 500 nM
Brc1cc(CNc2ncc(Br)c(Nc3cc(C4CC4)[nH]n3)n2)on1 [Example 72]	50 to 500 nM	500 to 5000 nM	–	–
O=C(Nc1ccccc1)c1nc(Nc2ccccc2Cl)nc(Nc2cc(C3CC3)n[nH]2)c1[N+](=O)[O-] [Example 276]	> 5000 nM	500 to 5000 nM	–	–
CN1CCC(NC(=O)c2ccc(Nc3nccc(Nc4cc(C5CC5)n[nH]4)n3)cc2)CC1 [Example 164]	500 to 5000 nM	500 to 5000 nM	–	–
Cc1cc(Nc2cc(C3CC3)[nH]n2)nc(NCc2cc(-c3cccc(Cl)c3)no2)n1 [Example 538]	50 to 500 nM	50 to 500 nM	–	–
CCN(CC)CCNc1cc(Nc2cc(C3CC3)[nH]n2)nc(NCc2cc(-c3ccccc3)no2)n1 [Example 45]	< 50 nM	< 50 nM	–	–
